A value given as a limit tells only on which side of the number the result lay.

The target of this experiment is Cruzipain (Trypanosoma cruzi, UniProt P25779). Briefly: Inhibition of Trypanosoma cruzi recombinant cruzain.
Chain of Cruzipain (P25779 whole entry): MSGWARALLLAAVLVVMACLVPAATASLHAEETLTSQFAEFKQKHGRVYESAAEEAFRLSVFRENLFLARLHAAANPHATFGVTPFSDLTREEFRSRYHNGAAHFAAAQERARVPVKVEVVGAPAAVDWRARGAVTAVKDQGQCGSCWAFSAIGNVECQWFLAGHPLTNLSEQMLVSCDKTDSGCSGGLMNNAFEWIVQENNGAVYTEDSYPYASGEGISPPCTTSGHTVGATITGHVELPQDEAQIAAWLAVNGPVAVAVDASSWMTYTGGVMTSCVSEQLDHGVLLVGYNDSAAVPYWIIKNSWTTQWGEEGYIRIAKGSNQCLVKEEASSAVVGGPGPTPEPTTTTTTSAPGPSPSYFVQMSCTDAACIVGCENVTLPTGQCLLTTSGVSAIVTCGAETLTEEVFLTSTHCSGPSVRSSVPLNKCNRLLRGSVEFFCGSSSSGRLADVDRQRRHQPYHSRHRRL
Broadly, the IC50 is the concentration that inhibits the measured activity by half. With `NC(=S)N/N=C1\CCS(=O)(=O)c2ccccc21`, the IC50 is more than 20 µM.
Next, `C/C(=N/NC(N)=S)C1=CCCc2ccccc21`: more than 20 µM; `NC(=S)N/N=C1/CCC(c2ccc(Br)cc2)C1` (configuration not stated): more than 5 µM.
Next, `NC(=S)N/N=C1/CCCC(c2ccc(Br)cc2)C1` (configuration not stated): more than 7 µM.
Consider `NC(=S)N/N=C1\CCc2ccccc2O1`, for which the 50% inhibitory concentration (IC50) was more than 16 µM.
The same measure for `C=CC(=O)C1=CCCc2ccc(Br)cc21`: 0.8 µM; for `NC(=S)N/N=C1\CCc2ccccc21`: more than 17 µM; for `NC(=S)N/N=C1\CCOc2ccccc21`: more than 17 µM.
In the case of `CC/C(=N\NC(N)=S)c1cccc(O)c1`, the half-maximal inhibitory concentration (IC50) was more than 33 µM.
Next, `NC(=S)N/N=C1\CCOc2ccc(Br)cc21`: 0.11 µM; `CC/C(=N\NC(N)=S)c1cccc(N)c1`: more than 3.64 µM; `CC(=O)C1=CCCc2ccccc21`: 1.36 µM.
